Several values for one entry are separate records, joined by “and”; a condition that tells them apart may be missing. Identical values can stand only once. Records with an inconclusive call do not appear.
System: BDF1 mice, Friend leukemia sc, tumor weight T/C
Test: NCI In Vivo Anticancer Drug Screen. Data for tumor model Friend Virus Leukemia (Solid) (subcutaneous) in B6D2F1 (BDF1) mice
Conditions: endpoint: mean tumor weight, higher = larger tumour
Protocol: The antitumor activity of compounds was measured in mice bearing transplantable tumors. Survival or tumor size were measured and the results are expressed as the measurement made in the treated group (T) divided by the measurement made in the vehicle treated control group (C). The tumor model used in this assay is Friend Virus Leukemia (Solid) (subcutaneous) in B6D2F1 (BDF1) mice

[1] = dose: 15.0 mg/kg/injection, schedule: Q01DX011 (ip), vehicle: carboxymethylcellulose (CMC)
[2] = dose: 9.0 mg/kg/injection, schedule: Q01DX011 (ip), vehicle: carboxymethylcellulose (CMC)
[3] = dose: 18.0 mg/kg/injection, schedule: Q01DX011 (ip), vehicle: carboxymethylcellulose (CMC)
[4] = dose: 300.0 mg/kg/injection, schedule: Q01DX011 (sc), vehicle: steriod suspending solution
[5] = dose: 2.0 mg/kg/injection, schedule: Q01DX011 (ip), vehicle: carboxymethylcellulose (CMC)
[6] = dose: 62.5 mg/kg/injection, schedule: Q01DX011 (ip), vehicle: carboxymethylcellulose (CMC)
[7] = dose: 125.0 mg/kg/injection, schedule: Q01DX011 (ip), vehicle: carboxymethylcellulose (CMC)
[8] = dose: 250.0 mg/kg/injection, schedule: Q01DX011 (ip), vehicle: carboxymethylcellulose (CMC)
[9] = dose: 500.0 mg/kg/injection, schedule: Q01DX011 (ip), vehicle: carboxymethylcellulose (CMC)
[10] = dose: 0.5 mg/kg/injection, schedule: Q01DX011 (ip), vehicle: carboxymethylcellulose (CMC)
[11] = dose: 1.0 mg/kg/injection, schedule: Q01DX011 (ip), vehicle: carboxymethylcellulose (CMC)
[12] = dose: 3.0 mg/kg/injection, schedule: Q01DX011 (ip), vehicle: carboxymethylcellulose (CMC)
[13] = dose: 75.0 mg/kg/injection, schedule: Q01DX011 (ip), vehicle: carboxymethylcellulose (CMC)
[14] = dose: 37.5 mg/kg/injection, schedule: Q01DX011 (ip), vehicle: carboxymethylcellulose (CMC)

Clc1ccc(N2CCN(CCCN3CCN(c4cccc(Cl)c4)CC3)CC2)cc1
T/C (dose: 7.5 mg/kg/injection, schedule: Q01DX011 (ip), vehicle: carboxymethylcellulose (CMC)): 93 % of control
T/C [1]: 85 % of control
T/C (dose: 30.0 mg/kg/injection, schedule: Q01DX011 (ip), vehicle: carboxymethylcellulose (CMC)): 62 % of control

COS(C)(=O)=O
T/C [2]: 167 % of control
T/C (dose: 9.37 mg/kg/injection, schedule: Q01DX011 (ip), vehicle: saline): 116 % of control
T/C [3]: 98 % of control
T/C (dose: 18.75 mg/kg/injection, schedule: Q01DX011 (ip), vehicle: saline): 114 % of control
T/C (dose: 37.5 mg/kg/injection, schedule: Q01DX011 (ip), vehicle: saline): 85 % of control
T/C (dose: 75.0 mg/kg/injection, schedule: Q01DX011 (ip), vehicle: saline): 76 % of control
T/C (dose: 100.0 mg/kg/injection, schedule: Q01DX011 (ip), vehicle: saline): 69 % of control

CC(=O)O[C@]1(C(C)=O)CC[C@H]2[C@@H]3C[C@H](C)C4=CC(=O)C=C[C@]4(C)[C@@]3(F)[C@@H](O)C[C@@]21C
T/C (dose: 25.0 mg/kg/injection, schedule: Q01DX011 (sc), vehicle: steriod suspending solution): 35 % of control
T/C (dose: 37.5 mg/kg/injection, schedule: Q01DX011 (sc), vehicle: steriod suspending solution): 34 % of control
T/C [4]: 11 % of control

Nc1nc(SCc2ccccc2)c2[nH]cnc2n1
T/C [5]: 84 % of control
T/C (dose: 3.12 mg/kg/injection, schedule: Q01DX011 (ip), vehicle: saline): 25 % of control
T/C (dose: 4.0 mg/kg/injection, schedule: Q01DX011 (ip), vehicle: carboxymethylcellulose (CMC)): 79 % of control
T/C (dose: 6.25 mg/kg/injection, schedule: Q01DX011 (ip), vehicle: saline): 43 % of control
T/C (dose: 8.0 mg/kg/injection, schedule: Q01DX011 (ip), vehicle: carboxymethylcellulose (CMC)): 99 % of control
T/C (dose: 10.0 mg/kg/injection, schedule: Q01DX011 (ip), vehicle: carboxymethylcellulose (CMC)): 46 % of control

N=[N+]=CC(=O)OCC(N)C(=O)O (stereo not given)
T/C (dose: 0.38 mg/kg/injection, schedule: Q01DX011 (ip), vehicle: carboxymethylcellulose (CMC)): 49 % of control
T/C (dose: 0.75 mg/kg/injection, schedule: Q01DX011 (ip), vehicle: carboxymethylcellulose (CMC)): 37 % of control
T/C (dose: 1.5 mg/kg/injection, schedule: Q01DX011 (ip), vehicle: carboxymethylcellulose (CMC)): 39 % of control and 44 % of control
T/C (dose: 1.8 mg/kg/injection, schedule: Q01DX011 (ip), vehicle: carboxymethylcellulose (CMC)): 108 % of control
T/C [2]: 33 % of control
T/C (dose: 12.0 mg/kg/injection, schedule: Q01DX011 (ip), vehicle: carboxymethylcellulose (CMC)): 22 % of control and 44 % of control
T/C [1]: 29 % of control

CC(C)CCS(=O)(=O)OCCCCOS(=O)(=O)CCC(C)C
T/C [6]: 98 % of control
T/C [7]: 97 % of control
T/C [8]: 73 % of control
T/C [9]: 39 % of control

CCn1cnc2c(=S)nc(N)[nH]c21
T/C [10]: 76 % of control
T/C [11]: 89 % of control
T/C [12]: 24 % of control and 49 % of control
T/C (dose: 7.0 mg/kg/injection, schedule: Q01DX011 (ip), vehicle: carboxymethylcellulose (CMC)): 11 % of control
T/C [1]: 4 % of control and 18 % of control

CC1(C)CC(C)(c2ccccc2)c2ccccc21 (stereo not given)
T/C [6]: 68 % of control
T/C [7]: 70 % of control
T/C [8]: 67 % of control
T/C [9]: 25 % of control

[I][Hg][CH2]C1OCCOC1[CH2][Hg][I] (stereo not given)
T/C [3]: 66 % of control
T/C (dose: 37.0 mg/kg/injection, schedule: Q01DX011 (ip), vehicle: carboxymethylcellulose (CMC)): 76 % of control
T/C [13]: 46 % of control

CCc1nc(N)nc(N)c1-c1ccc(Cl)cc1
T/C (dose: 6.25 mg/kg/injection, schedule: Q01DX011 (ip), vehicle: carboxymethylcellulose (CMC)): 124 % of control
T/C (dose: 12.5 mg/kg/injection, schedule: Q01DX011 (ip), vehicle: carboxymethylcellulose (CMC)): 85 % of control
T/C (dose: 25.0 mg/kg/injection, schedule: Q01DX011 (ip), vehicle: carboxymethylcellulose (CMC)): 113 % of control
T/C (dose: 50.0 mg/kg/injection, schedule: Q01DX011 (ip), vehicle: carboxymethylcellulose (CMC)): 95 % of control

S=C(N=Nc1ccccc1)NNc1ccccc1
T/C [14]: 92 % of control

COc1ccccc1NC(=O)CSC(N)=O
T/C (dose: 100.0 mg/kg/injection, schedule: Q01DX011 (ip), vehicle: carboxymethylcellulose (CMC)): 91 % of control
T/C (dose: 200.0 mg/kg/injection, schedule: Q01DX011 (ip), vehicle: carboxymethylcellulose (CMC)): 104 % of control
T/C (dose: 400.0 mg/kg/injection, schedule: Q01DX011 (ip), vehicle: carboxymethylcellulose (CMC)): 71 % of control

CO[C@H]1[C@@H](O)C[C@H]2[C@@H]3CC=C4C[C@@H](O)CC[C@]4(C)[C@H]3CC[C@@]21C
T/C (dose: 10.0 mg/kg/injection, schedule: Q01DX011 (sc), vehicle: steriod suspending solution): 77 % of control
T/C (dose: 20.0 mg/kg/injection, schedule: Q01DX011 (sc), vehicle: steriod suspending solution): 116 % of control
T/C (dose: 40.0 mg/kg/injection, schedule: Q01DX011 (sc), vehicle: steriod suspending solution): 115 % of control

Brc1ncnc2nc[nH]c12
T/C [13]: 51 % of control
T/C (dose: 113.0 mg/kg/injection, schedule: Q01DX011 (ip), vehicle: carboxymethylcellulose (CMC)): 82 % of control
T/C (dose: 171.0 mg/kg/injection, schedule: Q01DX011 (ip), vehicle: carboxymethylcellulose (CMC)): 43 % of control
T/C (dose: 256.0 mg/kg/injection, schedule: Q01DX011 (ip), vehicle: carboxymethylcellulose (CMC)): 34 % of control

Cc1c2ccc3ccccc3c2c[n+]2ccccc12
T/C [12]: 97 % of control
T/C (dose: 6.0 mg/kg/injection, schedule: Q01DX011 (ip), vehicle: carboxymethylcellulose (CMC)): 105 % of control
T/C (dose: 24.0 mg/kg/injection, schedule: Q01DX011 (ip), vehicle: carboxymethylcellulose (CMC)): 61 % of control and 37 % of control

O=[N+]([O-])c1ccc(O)c([N+](=O)[O-])c1
T/C (dose: 3.87 mg/kg/injection, schedule: Q01DX011 (ip), vehicle: carboxymethylcellulose (CMC)): 101 % of control
T/C (dose: 6.75 mg/kg/injection, schedule: Q01DX011 (ip), vehicle: carboxymethylcellulose (CMC)): 102 % of control
T/C (dose: 13.5 mg/kg/injection, schedule: Q01DX011 (ip), vehicle: carboxymethylcellulose (CMC)): 103 % of control
T/C (dose: 27.0 mg/kg/injection, schedule: Q01DX011 (ip), vehicle: carboxymethylcellulose (CMC)): 123 % of control

N#C[C@@H]1C2C=CC(CC2)[C@H]1C#N
T/C [10]: 97 % of control
T/C [11]: 71 % of control
T/C [5]: 83 % of control

CN(C)C1C(=O)C(C(N)=O)=C(O)C2(O)C(=O)C3=C(O)c4c(O)cccc4C(C)(O)C3C(O)C12 (stereo not given)
T/C (dose: 19.5 mg/kg/injection, schedule: Q01DX011 (ip), vehicle: carboxymethylcellulose (CMC)): 94 % of control
T/C (dose: 78.0 mg/kg/injection, schedule: Q01DX011 (ip), vehicle: carboxymethylcellulose (CMC)): 115 % of control
T/C (dose: 156.0 mg/kg/injection, schedule: Q01DX011 (ip), vehicle: carboxymethylcellulose (CMC)): 95 % of control

CC1=C2C(=C[C@@](C)(CO)[C@@H]2O)C(=O)[C@](C)(O)C12CC2
T/C (dose: 7.5 micrograms/kg/injection, schedule: Q01DX011 (ip), vehicle: carboxymethylcellulose (CMC)): 121 % of control
T/C (dose: 15.0 micrograms/kg/injection, schedule: Q01DX011 (ip), vehicle: carboxymethylcellulose (CMC)): 91 % of control
T/C (dose: 30.0 micrograms/kg/injection, schedule: Q01DX011 (ip), vehicle: carboxymethylcellulose (CMC)): 69 % of control

CCCCn1cnc2c(SC)nc(N)nc21
T/C (dose: 18.75 mg/kg/injection, schedule: Q01DX011 (ip), vehicle: carboxymethylcellulose (CMC)): 120 % of control
T/C [14]: 98 % of control
T/C [13]: 83 % of control
T/C (dose: 150.0 mg/kg/injection, schedule: Q01DX011 (ip), vehicle: carboxymethylcellulose (CMC)): 63 % of control

C[C@]12CCC(=O)C=C1CC[C@@H]1[C@@H]2[C@@H](O)C[C@@]2(C)[C@H]1CC[C@]2(O)C(=O)COC(=O)CCC(=O)O
T/C (dose: 75.0 mg/kg/injection, schedule: Q01DX011 (sc), vehicle: steriod suspending solution): 52 % of control
T/C (dose: 150.0 mg/kg/injection, schedule: Q01DX011 (sc), vehicle: steriod suspending solution): 49 % of control
T/C [4]: 27 % of control

Source: PubChem BioAssay AID228 (DTP/NCI, 2004)
